The values below come from ChEMBL document CHEMBL5727219, “Kinase inhibitors and method of treating cancer” (2019).

By IC50 is commonly meant the midpoint of a concentration-inhibition curve. A higher IC50 goes with weaker potency.

Molecules are shown by their SMILES.

A short description of the experiment: Inhibition Assay: PLK3 inhibition was determined using the Z-Lyte assay kit from Invitrogen (cat #PV3802). The assay was performed using the recommended manufacturer's instructions with 100 μM ATP and 21 nM PLK3 (Invitrogen cat #PV3812). The % inhibition values were determined according to the manufacturer's directions and IC50 values were obtained using a non-linear 4 point logistic curve fit (XLfit4, IDBS).

As to `CCc1ccc2c(c1)[C@]1(C[C@H]1c1ccc3c(-c4cccc(CN5CCOCC5)c4)n[nH]c3c1)C(=O)N2`, the half-maximal inhibitory concentration (IC50) entry is “in the range around 2 µM”.

As to `COCCN1C(=O)[C@@]2(C[C@H]2c2ccc3c(/C=C/c4ccc(CN(C)C)cc4)n[nH]c3c2)c2ccccc21`, the 50% inhibitory concentration (IC50) entry was “in the range around 2 µM”. For the compound `COc1ccc2c(c1)[C@]1(C[C@H]1c1ccc3c(-c4cccc(N5CCNCC5)c4)n[nH]c3c1)C(=O)N2` (relative stereo), the IC50 entry was “in the range around 2 µM”.

On to `COc1ccc2c(c1)[C@]1(C[C@H]1c1ccc3c(-c4cccc(CN5CCCCC5)c4)n[nH]c3c1)C(=O)N2` (relative stereo), for which the IC50 result was “in the range around 2 µM”. In the case of `COc1ccc2c(c1)[C@]1(C[C@H]1c1ccc3c(-c4cccc(CN5CCOCC5)c4)n[nH]c3c1)C(=O)N2` (relative stereo), the half-maximal inhibitory concentration (IC50) result is “in the range around 2 µM”.

Take `COc1ccc2c(c1)[C@]1(C[C@H]1c1ccc3c(-c4ccc(CO)cc4)n[nH]c3c1)C(=O)N2` (relative stereo): the IC50 result was “in the range around 2 µM”.
